Laboratory results reported in paper PMC5039417, “Aberrant Glycosylation of Anchor-Optimized MUC1 Peptides Can Enhance Antigen Binding Affinity and Reverse Tolerance to Cytotoxic T Lymphocytes” (Biomolecules, 2016).
Each block holds one compound with its values, some of them ahead of it. No end group written: not given here.

Columns and labels:
[1] = biological target: HLA-A*0201 molecules on T2 cells (Homo sapiens, UniProt P04439, D140Y/D185E/D98H/E176V/E277Q/G131W/G231S/I119V/I121R/I166T/I218V/L300P/L318F/N151K/N90K/P208A/P217A/Q86G/Q94H/R138H/R169H/T345S); experiment: MHC stabilization assay on T2 cells (fluorescence index); type: cell-based; conditions: peptide 0–100 μg/mL, β2-microglobulin 1 μg/mL, 18 h 37 °C, BB7.2 antibody, flow cytometry
Description: Figure 1 MUC1 peptides (anchor-optimized and glycosylated) stabilized HLA-A*0201 molecules on T2 cells. Increasing amounts of the MUC1 peptides (0–100 μg/mL) and β2-microglobulin (1 μg/mL) were incubated with T2 cells for 18 h at 37 °C prior to staining with the HLA-A*0201 antibody (clone BB7.2, Pharmingen). Mean fluorescence intensity (MFI) was determined by flow cytometry and the fluorescence index (FI) was calculated from the formula: FI = (FS − FB)/(FT2 − FB) × 100 where FS is the MFI of the test peptides, FB is the non-peptide isotype antibody-stained control MFI, and FT2 is the non-peptide HLA-A*0201 antibody-stained control MFI.
Peptide binding to HLA-A*0201 was analyzed using TAP1- and TAP2-deficient T2 cells which express the HLA-A*0201 allele. […] Binding of the peptides was measured using flow cytometry for upregulation of HLA-A2 surface expression on the T2 cells. […] Mean fluorescence intensity (MFI) was determined and the fluorescence index (FI) was calculated from the formula: FI = (FS − FB)/(FT2 − FB) × 100 where FS is the MFI of the test peptides, FB is the no-peptide isotype antibody-stained control MFI, and FT2 is the no-peptide HLA-A2 antibody-stained control MFI [52].

[2] = test system: MCF-7 cells (MUC1+, HLA-A*0201+); experiment: 51Cr-release assay, peptide-induced CTLs from normal donors; type: cell-based, human; conditions: for Lysis of MCF-7 cells by CTLs elicited with the peptide: 8 normal post-menopausal HLA-A*0201 women, E:T 100:1, 6 h, p = 0.008 vs negative control P11; for % of Donors with at Least 30% Cell Kill: normal donors (n = 8), MCF-7 targets, 30% cell kill considered a response
[3] = test system: CD8+ T cells from HLA-A*0201 breast cancer patients; experiment: 3H-thymidine proliferation of T cells from breast cancer patients; type: cell-based, human; conditions: 23 HLA-A*0201 breast cancer patients, DCs pulsed with 10 μg/mL peptide + IL-2, 5 days, vs no-peptide stimulated T cells
Description: CD8^+ T cells from the patients were incubated with irradiated autologous DCs pulsed with the various MUC1 peptides (10 μg/mL) plus IL-2 for 5 days and proliferation was assessed by measuring the ^3H-thymidine uptake. T cells from ~38% of the breast cancer patients responded to the selected MUC1 peptides (Figure 6).
Figure 6 T cells from ~38% of the HLA-A2^+ breast cancer patients regardless of their stage, ER/PR and HER2 status responded to the selected MUC1 peptides. 1 × 10^5 T cells were incubated with irradiated […] DCs pulsed with the various MUC1 peptides (10 μg/mL) + IL-2 for 5 days in complete media. Proliferation was assessed by measuring the ^3H-thymidine uptake and is reported as fold increase in counts per minute. The dotted line indicates the two-fold increase in proliferation.

[4] = test system: MCF-7 cells (HLA-A*0201+, MUC1+); experiment: 51Cr-release assay, peptide-induced CTLs from breast cancer patients; type: cell-based, human; conditions: for Lysis of MCF-7 cells by T cells from cancer samples: all three breast cancer patient samples, E:T 100:1
Excerpt: Figure 7 In vitro stimulation of T cells from HLA-A*0201^+ cancer patients (peri-menopausal) with anchor-optimized and/or glycosylated MUC1 peptides elicited strong CTL activity. (A) PBLs underwent two rounds of stimulation and sorted CD8^+ T cells were subjected to a ^51Cr-release assay. Targets were MCF-7 cells (HLA-A*0201^+, MUC1^+). Effector:target ratio was 100:1 and spontaneous release was less than 25% of complete lysis. The filled triangles designate normal individuals and the open triangles designate breast cancer patients. […] Following two rounds of stimulation, CD8^+ cells were maintained for 24 h on an ELISpot plate. Spot numbers were determined using computer assisted video image analysis by Zellnet Consulting Inc. (FortLee, NJ, USA). There was no evidence of a significance difference in spot numbers between cancer patients and healthy controls (Wilcoxon rank sum test; p > 0.05).
An optimized protocol for the generation of peptide-specific CTLs was developed that relied upon autologous DCs for stimulation. PBMCs (2 × 10^6 cells/mL of AIM V medium) were transferred to a 24-well plate and incubated for 2 h at 37 °C. Non-adherent lymphocytes were washed off with PBS and the adherent cells were cultured in X-VIVO medium containing GM-CSF (1000 U/mL) and IL-4 (1000 U/mL) to generate DCs. […] DCs were analyzed by flow cytometry for appropriate maturation markers. […] Five to seven days later, T cells were analyzed for cytolytic activity by ^51Cr-release assay and interferon gamma production by ELISPOT.
The lytic activity of the in vitro stimulated peptide-specific CTLs was measured by a standard six-hour ^51Cr-release assay. […] After incubation, 30 μL of supernatant was transferred onto LUMA plates (Perkin Elmer, Waltham, MA, USA) and radioactive ^51Cr release was measured in a Topcount Micro-scintillation Counter (Packard Biosciences, Shelton, CT, USA). […]

HLA-A*0201 molecules = HLA-A*0201 molecules (Homo sapiens, UniProt P04439, D140Y/D185E/D98H/E176V/E277Q/G131W/G231S/I119V/I121R/I166T/I218V/L300P/L318F/N151K/N90K/P208A/P217A/Q86G/Q94H/R138H/R169H/T345S); experiment: Competitive peptide inhibition assay (F1-peptide displacement on T2 cells)
[5] = test system: Autologous DCs pulsed with MUC1 peptides; experiment: 51Cr-release assay against peptide-pulsed autologous DCs; type: cell-based, human; conditions: four normal donors, DCs pulsed with 50 μg/mL peptide and PADRE 10 μg/mL, E:T 100:1
Description: Autologous DCs pulsed with various MUC1 peptides (50 μg/mL) and PADRE peptide (10 μg/mL) were used as targets. Effector:target ratio was 100:1 and spontaneous release was less than 15% of complete lysis. * p < 0.05 (Student’s t-test) compared to the negative peptide.
The lytic activity of the in vitro stimulated peptide-specific CTLs was measured by a standard six-hour ^51Cr-release assay. The target cells used were MCF-7 breast cancer cell lines which express MUC1^+ and HLA-A*0201, and MDA-MB-231 cells, which are MUC1 negative and express HLA-A*0201. All tumor targets were treated with IFNγ one-day prior to use to up-regulate class I surface expression. Autologous DCs pulsed with the recall peptides, other modified peptides and the native peptide were also used as targets to evaluate cross-reactivity of MUC1-specific CTLs. The targets were labeled with Na^51CrO4 (0.1 mCi/mL) for 2 h, washed 3 times with PBS and re-suspended in T cell medium to a concentration of 2 × 10^4 cells/mL. […] After incubation, 30 μL of supernatant was transferred onto LUMA plates (Perkin Elmer, Waltham, MA, USA) and radioactive ^51Cr release was measured in a Topcount Micro-scintillation Counter (Packard Biosciences, Shelton, CT, USA). Percent specific lysis was calculated according to the following formula: Percent specific lysis = (experimental cpms − spontaneous cpms)/(complete cpms − spontaneous cpms) × 100. […]

[6] = test system: CD8+ T cells (IFNγ production); experiment: IFNγ ELISpot of peptide-induced CD8+ T cells; type: cell-based, human; conditions: for IFNγ production by CD8+ T cells generated to the peptide: normal donors, two rounds of stimulation, 24 h on ELISpot plate
Description: Figure 5 Production of IFNγ by CD8^+ T cells was induced in response to MUC1 peptides. Following two rounds of stimulation, CD8^+ cells were maintained for 24 h on an ELISpot plate. Spot numbers were determined using computer assisted video image analysis by Zellnet Consulting Inc. There were no significance differences compared to the negative peptide (p > 0.05).
IFNγ ELISpot plates from Mabtech (Stockholm, Sweden) were used to detect IFNγ producing MUC1-specific CTLs. The assay was performed using the capture IFNγ antibody as recommended by the manufacturer. Day five post R2-stimulation, the CTLs were washed three times and 1 × 10^5 cells were transferred to the washed and blocked IFNγ ELISpot plates and incubated at 37 °C in a 5% CO2 incubator for 24 h. After incubation the plates were washed with PBS, incubated with alkaline phosphatase-conjugated IFNγ antibody at room temperature for two hours and then spots were detected with BCIP/NBT substrate. Spot numbers were determined using computer assisted video image analysis by Zellnet Consulting Inc. (Fort Lee, NJ, USA).

Compound: ALGSTAPPV [P9, unmodified native MUC1 degenerate TR peptide, reference compound]
% of Donors with at Least 30% Cell Kill ([2]; E:T 100:1): 12.50%

Compound: STAPT(Tn)VHNV [P2, Tn-glycosylated MUC1 peptide]
Lysis of MCF-7 cells by CTLs elicited with the peptide, one individual ([2]; CTLs from one normal individual, E:T 100:1): low lysis
IFNγ production by CTLs elicited by the peptide, one individual ([6]; CTLs from one normal individual): strong production of IFNγ
IFNγ production by CD8+ T cells generated to the peptide [6]: showed production of IFNγ

Compound: CC(C)C[C@H](NC(=O)[C@@H](N)CO)C(=O)N[C@@H](C)C(=O)N1CCC[C@H]1C(=O)N1CCC[C@H]1C(=O)N[C@H](C(=O)N[C@@H](Cc1c[nH]cn1)C(=O)N[C@@H](CC(N)=O)C(=O)N[C@H](C(=O)O)C(C)C)C(C)C [P15]
IC50 (HLA-A*0201 molecules): 0.363 µM

Continued, in another order:

Binding to HLA-A*0201 on T2 cells by fluorescence index (FI) [1]: bound moderately
IC50 (concentration producing 50% inhibition of F1-peptide binding) (HLA-A*0201 molecules; T2 cells, F1-peptide 100 ng/mL, β2-microglobulin 1 μg/mL, competitor 0–100 μg/mL, flow cytometry MFI, Prism): 10.13 µg/mL
Compound: STAPPVHNV [P1]
Lysis of MCF-7 cells by CTLs elicited with the peptide [2]: did not elicit lytic T cells
Patients responding with >2-fold increase in proliferation [3]: 8/23
Lysis of MCF-7 cells by T cells from cancer samples [4]: greater than 30%
Activation of lytic T cells from breast cancer patients ([4]; three breast cancer patients, MCF-7 targets): effectively activated lytic T cells from all three breast cancer patients
Affinity class of binder to HLA-A*0201 (HLA-A*0201 molecules; scored from IC50 in the competition assay on T2 cells): medium (“medium affinity binders” with IC50 of ≥to 5 μg/mL and <15 μg/mL)

Fold higher affinity than the known M1.1 and M1.2 MUC1 peptides (HLA-A*0201 molecules; discussion, '8- to 30-fold, respectively'): 8 fold
Compound: SLAPT(Tn)VHNV [P4]
Lysis of MCF-7 cells by CTLs elicited with the peptide [2]: significant lysis
Percent of donors that will respond (lower limit of 95% CI) ([2]; based on considering 30% cell kill a response): at least 35%
% of Donors with at Least 30% Cell Kill ([2]; E:T 100:1): 75%
Lytic reactivity of CTLs against DCs pulsed with immunizing or native P1 peptide [5]: reacted against the native P1:STAPPVHNV
IFNγ production by CD8+ T cells generated to the peptide [6]: showed production of IFNγ
Patients responding with >2-fold increase in proliferation [3]: 10/23
Lysis of MCF-7 cells by T cells from cancer samples [4]: greater than 30%

IC50 (HLA-A*0201 molecules): 0.441 µM
Compound: SLSYTNPAV [P7]

IC50 (HLA-A*0201 molecules): 11.1 µM
Compound: LLLLTVLTV [P5]
